Test results from PMC4769319, “Cohesin Releases DNA through Asymmetric ATPase-Driven Ring Opening” (Molecular Cell, 2016).

Target: T1, Smc1/Smc3 heterodimer with Scc1-C (cohesin) (Saccharomyces cerevisiae, UniProt P32908+P47037, P32908:E1158Q, form not given)
T1 construct: N-terminal tags; Sf9 insect cells; fluorescently labelled for MST; with Sister chromatid cohesion protein 1
T1 sequence (P32908 1-1225 E1158Q): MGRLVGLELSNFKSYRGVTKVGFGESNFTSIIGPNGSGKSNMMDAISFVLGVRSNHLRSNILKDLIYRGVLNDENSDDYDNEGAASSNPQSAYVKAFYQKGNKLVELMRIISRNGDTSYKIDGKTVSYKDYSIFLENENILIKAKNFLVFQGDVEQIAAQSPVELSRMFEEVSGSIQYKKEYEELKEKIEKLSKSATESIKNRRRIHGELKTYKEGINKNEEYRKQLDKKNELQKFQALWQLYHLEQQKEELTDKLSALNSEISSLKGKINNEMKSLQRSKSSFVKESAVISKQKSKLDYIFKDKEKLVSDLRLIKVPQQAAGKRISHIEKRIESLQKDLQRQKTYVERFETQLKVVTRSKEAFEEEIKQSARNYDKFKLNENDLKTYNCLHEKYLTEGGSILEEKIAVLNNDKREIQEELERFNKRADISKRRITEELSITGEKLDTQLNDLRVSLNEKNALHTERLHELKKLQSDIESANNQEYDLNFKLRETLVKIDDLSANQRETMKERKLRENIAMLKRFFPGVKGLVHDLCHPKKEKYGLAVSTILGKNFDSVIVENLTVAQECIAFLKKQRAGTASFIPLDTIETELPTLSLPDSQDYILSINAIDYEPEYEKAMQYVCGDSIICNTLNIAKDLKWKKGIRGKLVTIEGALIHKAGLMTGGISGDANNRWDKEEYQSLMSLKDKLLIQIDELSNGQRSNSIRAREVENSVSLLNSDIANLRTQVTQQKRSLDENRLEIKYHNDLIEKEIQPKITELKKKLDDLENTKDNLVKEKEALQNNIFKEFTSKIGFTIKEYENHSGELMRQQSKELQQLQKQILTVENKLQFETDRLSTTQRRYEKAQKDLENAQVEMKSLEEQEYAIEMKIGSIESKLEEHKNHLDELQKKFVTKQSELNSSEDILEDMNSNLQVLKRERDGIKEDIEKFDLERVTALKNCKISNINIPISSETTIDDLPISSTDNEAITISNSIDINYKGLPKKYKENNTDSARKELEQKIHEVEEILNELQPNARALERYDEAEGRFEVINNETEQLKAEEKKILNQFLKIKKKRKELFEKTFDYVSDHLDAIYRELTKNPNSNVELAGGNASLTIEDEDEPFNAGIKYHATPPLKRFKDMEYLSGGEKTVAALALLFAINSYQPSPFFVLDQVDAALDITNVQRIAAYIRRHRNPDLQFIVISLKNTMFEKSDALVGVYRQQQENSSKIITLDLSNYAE
T1 sequence (P47037 1-1230): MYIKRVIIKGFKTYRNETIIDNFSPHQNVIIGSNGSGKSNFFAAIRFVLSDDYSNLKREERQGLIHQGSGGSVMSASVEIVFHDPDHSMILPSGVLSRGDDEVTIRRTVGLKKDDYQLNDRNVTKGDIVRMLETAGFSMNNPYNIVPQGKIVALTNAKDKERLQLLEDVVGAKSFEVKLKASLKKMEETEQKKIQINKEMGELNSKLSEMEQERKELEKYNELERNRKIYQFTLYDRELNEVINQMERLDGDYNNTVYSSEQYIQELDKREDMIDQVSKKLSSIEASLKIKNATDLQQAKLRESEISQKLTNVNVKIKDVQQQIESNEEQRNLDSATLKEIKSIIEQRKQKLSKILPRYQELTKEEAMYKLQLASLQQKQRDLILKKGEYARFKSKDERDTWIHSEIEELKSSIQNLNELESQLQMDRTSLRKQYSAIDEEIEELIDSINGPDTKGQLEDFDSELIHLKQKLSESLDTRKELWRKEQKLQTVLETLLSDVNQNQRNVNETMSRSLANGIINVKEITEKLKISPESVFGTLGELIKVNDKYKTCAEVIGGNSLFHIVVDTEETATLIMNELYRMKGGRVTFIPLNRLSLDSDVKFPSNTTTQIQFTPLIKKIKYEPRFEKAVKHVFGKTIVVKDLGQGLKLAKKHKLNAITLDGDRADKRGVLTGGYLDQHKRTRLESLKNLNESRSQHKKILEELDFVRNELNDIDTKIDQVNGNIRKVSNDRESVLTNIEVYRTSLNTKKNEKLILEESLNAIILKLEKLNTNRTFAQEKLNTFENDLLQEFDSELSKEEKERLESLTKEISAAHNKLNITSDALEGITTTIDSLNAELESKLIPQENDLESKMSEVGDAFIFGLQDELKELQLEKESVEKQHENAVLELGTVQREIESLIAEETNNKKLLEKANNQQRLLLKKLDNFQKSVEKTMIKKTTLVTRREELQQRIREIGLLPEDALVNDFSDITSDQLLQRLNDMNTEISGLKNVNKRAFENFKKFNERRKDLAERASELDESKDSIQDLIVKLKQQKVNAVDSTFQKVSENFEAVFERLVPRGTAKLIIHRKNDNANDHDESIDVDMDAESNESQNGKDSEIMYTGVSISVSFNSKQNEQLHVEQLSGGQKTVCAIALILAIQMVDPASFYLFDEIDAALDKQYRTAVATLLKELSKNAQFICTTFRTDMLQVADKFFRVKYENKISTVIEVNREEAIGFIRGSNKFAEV
T1 sequence (Q12158 1-566 partner): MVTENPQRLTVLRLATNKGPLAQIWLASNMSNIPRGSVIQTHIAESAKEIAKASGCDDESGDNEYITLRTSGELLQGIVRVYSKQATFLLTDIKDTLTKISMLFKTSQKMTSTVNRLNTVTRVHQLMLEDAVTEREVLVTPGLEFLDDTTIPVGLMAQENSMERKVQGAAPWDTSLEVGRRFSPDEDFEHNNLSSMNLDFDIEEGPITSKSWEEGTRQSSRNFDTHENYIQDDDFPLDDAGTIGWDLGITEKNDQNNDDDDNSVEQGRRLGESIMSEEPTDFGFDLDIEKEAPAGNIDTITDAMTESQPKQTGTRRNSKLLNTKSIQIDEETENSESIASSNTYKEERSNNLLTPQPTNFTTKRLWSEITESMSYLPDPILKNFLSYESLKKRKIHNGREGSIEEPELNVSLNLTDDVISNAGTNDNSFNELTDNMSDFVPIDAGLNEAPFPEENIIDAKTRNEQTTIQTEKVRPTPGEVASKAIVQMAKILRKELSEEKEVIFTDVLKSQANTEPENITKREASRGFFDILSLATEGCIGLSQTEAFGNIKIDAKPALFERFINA
Assay: microscale thermophoresis
Format: binding
Details: fluorescently labelled protein; Smc1 co-purified with Scc1-C, plus Smc3; read-out: affinity
Description: microscale thermophoresis on Smc1/Smc3 heterodimer with Scc1-C (cohesin) | Smc1 L1129V, D1164E and E1158Q mutants all had wild-type-like affinity to both ATP and ADP | wild-type and mutant cohesin complexes appear to have similar affinities to ADP

Row | Kd [µM] | Compound
1 | > 1000 | Nc1ncnc2c1ncn2[C@@H]1O[C@H](COP(=O)(O)OP(=O)(O)O)[C@@H](O)[C@H]1O [ADP]
2 | 567 ± 289 | Nc1ncnc2c1ncn2[C@@H]1O[C@H](COP(=O)(O)OP(=O)(O)OP(=O)(O)O)[C@@H](O)[C@H]1O [ATP]
